Test results published in patent US20140256663A1, “Amphotericin Analogous Compounds and Pharmaceutical Compositions Containing Them” (CENTRO DE INVESTIGACION Y DE ESTUDIOS AVANZADOS DEL …, priority 2010, published 2014).
Entries after “also recorded” stand apart in the source; their conditions may differ.

What was measured:
[1] = system: Saccharomyces cerevisae FY833(SC) cells; assay: Viability of Saccharomyces cerevisae FY833 (SC) cells at various concentrations; assay type: cell-based; details: FIG. 1, various concentrations; listed as amide 7
Description: All derivatives were tested for antibiotic activity in yeast cultures of S. cerevisiae.

[2] = system: Saccharomyces cerevisae FY833(SC) cells compared with human renal cells 293Q; details: FIG. 3
physchem = details: DMSO, organic solvent or mixture
[3] = system: Candida albicans ATCC 10231; assay: Antifungal activity in vitro by flow cytometry, Candida albicans ATCC 10231; assay type: cell-based; details: ATCC10231, 24 h at 37° C., read-out: CF50 Candida albicans ATCC 10231
Description: The antifungal activity of the polyene macrolide derivate of the present invention was determined by flow cytometry method earlier described (Pinto et al., J. Medical Microbiology, 2009; 58, 1454-1462; Pina-Vaz and Rodriguez, Methods Mol. Biol. 2010; 638:281-289). For the test two strains of Candida albicans (ATCC 10231 and 752) and Candida kruzei were used. A cellular suspension of 1×10^6 UFC/mL was used, which has sown in 96-well plates. […] As controls were used: untreated yeasts (control of living cells), yeasts exposed to UV radiation (arrest, inhibition of proliferation), and yeasts exposed at temperature of 100° C. (dead yeasts). Cells were collected by centrifugation at 10,000×g for 10 min, they were washed once in phosphate buffer. […] of propidium iodide 0.1 mg/mL were added to the cell suspension. It was incubated during 30 minutes at room temperature and protected from light. Finally, the samples were analyzed by flow cytometry (Becton-Dickinson Facsc Calibur, laser argon 480 nm). The intrinsic parameters and fluorescence in the FL2 channel (yellow/orange fluorescence) for FUN and channel FL3 (red fluorescence, filter 630 nm) for propidium iodide were acquired and registered on a logarithmic scale for a minimum of 7500 events per sample. For data analysis, the quadrants were adjusted in a plot of data lines of fluorescence intensity of samples. […] These quadrants were used to quantify the percentile of cells showing altered fluorescence compared to drug-free controls.

Compound	inhibitory capacity / potency on SC cells compared to AmB [1]	advantage of selectivity over AmB (factor) [2]	solubility (physchem) [mM]	IC50 [3] [nM]
COC(=O)[C@@H](Cc1c[nH]c2ccccc12)NC(=O)[C@@H]1C(O)C[C@@]2(O)C[C@@H](O)C[C@@H](O)[C@H](O)CC[C@@H](O)C[C@@H](O)CC(=O)OC(C)C(C)[C@H](O)C(C)/C=C/C=C/C=C/C=C/C=C/C=C/C=C/[C@H](OC3OC(C)C(O)C(N)C3O)CC1O2 (stereo partly shown) [A-7, N-(D)-tryptophanamide of AmB]	the most similar; also recorded: the highest power of the derivatives	4	–	–
C[C@@H]1[C@H](O)[C@@H](C)/C=C/C=C/C=C/C=C/C=C/C=C/C=C/[C@H](O[C@@H]2O[C@H](C)[C@@H](O)[C@H](N)[C@@H]2O)C[C@@H]2O[C@](O)(C[C@@H](O)C[C@@H](O)[C@H](O)CC[C@@H](O)C[C@@H](O)CC(=O)O[C@H]1C)C[C@H](O)[C@H]2C(=O)O [AmB, Amphotericin B]	–	–	≤ 20	200
